Assay results as given in US6969713B2, “Piperidine and piperazine acetamide derivatives” (AstraZeneca AB, priority 1999, dated 2005).

With Cc1ccc(NS(C)(=O)=O)cc1NC(=O)CN1CC2CCC(C1)N2c1ncnc2scnc12 the melting point was 145 to 187 °C.
For O=C1Cc2c(cccc2NC(=O)CN2CC3CCC(C2)N3c2ncnc3sccc23)N1, the melting point was 265 °C (dec.).
In the case of Cc1c(F)cccc1NC(=O)CN1CC2CCC(C1)N2S(=O)(=O)c1ccccc1, the melting point is reported as 168 to 169 °C.
Cc1ccccc1NC(=O)CN1CC2CCC(C1)N2S(=O)(=O)c1cccc(C#N)c1 gave a melting point of 166 to 168 °C.
COc1cccc(S(=O)(=O)N2C3CCC2CN(CC(=O)Nc2ccccc2C)C3)c1 gave a melting point of 163 to 165 °C.
In the case of Cc1ccccc1NC(=O)CN1CC2CCC(C1)N2S(=O)(=O)c1cccc2nonc12, the melting point is reported as 167 to 168 °C.
In the case of Cc1ccccc1NC(=O)CN1CC2CCC(C1)N2S(=O)(=O)c1cccc2nsnc12, the melting point is reported as 169 to 170 °C.
Compound Cc1ccccc1NC(=O)CN1CC2CCC(C1)N2S(=O)(=O)c1ccc(Cl)s1 has a melting point of 150 to 152 °C.
For Cc1ccccc1NC(=O)CN1CC2CCC(C1)N2S(=O)(=O)c1ccccc1Cl, the melting point was 170 to 171 °C.
COc1ccc(Cl)cc1S(=O)(=O)N1C2CCC1CN(CC(=O)Nc1ccccc1C)C2 showed a melting point of 180 to 181 °C.
CC(=O)Nc1ccc(S(=O)(=O)N2C3CCC2CN(CC(=O)Nc2ccccc2C)C3)cc1 showed a melting point of 205 to 206 °C.
For Cc1ccccc1NC(=O)CN1CC2CCC(C1)N2c1ncnc2scc(C)c12, the melting point was 199 to 200 °C.
Cc1cccc(C)c1NC(=O)CN1CCN(c2ncnc3sccc23)C(C)C1 (racemic) [Example 1, (±)-N-(2,6-Dimethylphenyl)-2-(3-methyl-4-(thieno[2,3-d]pyrimidin-4-yl)piperazin-1-yl)acetamide] gave a melting point of 184 to 185 °C.
Work on Cc1cccc(C)c1NC(=O)CN1C[C@@H](C)N(c2ncnc3sccc23)[C@@H](C)C1 [Example 2, cis-[2-(3,5-Dimethyl-4-(thieno[2,3-d]pyrimidin-4-yl)piperazin-1-yl)]-N-(2,6-dimethylphenyl)acetamide] yielded a melting point of 186 to 189 °C.
Cc1c(CO)cccc1NC(=O)CN1C[C@@H](C)N(c2ncnc3sccc23)[C@@H](C)C1 [Example 4, cis-N-[3-Hydroxymethyl-2-methylphenyl]-2-(3,5-dimethyl-4-(thieno[2,3-d]pyrimidin-4-yl)piperazin-1-yl)acetamide] gave a melting point of 203 to 204 °C.
In the case of Cc1ccccc1NC(=O)CN1C[C@@H](C)N(c2ncnc3sccc23)[C@@H](C)C1 [Example 6, cis-2-[3,5-Dimethyl-4-(thieno[2,3-d]pyrimidin-4-yl)piperazin-1-yl]-N-(2-methylphenyl)acetamide], the melting point is reported as 174 to 175 °C.
C[C@@H]1CN(CC(=O)Nc2ccccc2Cl)C[C@H](C)N1c1ncnc2sccc12 [Example 7, cis-N-(2-Chlorophenyl)-2-[3,5-dimethyl-4-(thieno[2,3-d]pyrimidin-4-yl)piperazin-1-yl]acetamide] gave a melting point of 206 to 207 °C.
C[C@@H]1CN(CC(=O)Nc2ccccc2Cl)C[C@H](C)N1c1ncnc2c1ncn2C [Example 8, cis-N-(2-Chlorophenyl)-2-[3,5-dimethyl-4-(9-methyl-9H-purin-6yl)piperazin-1-yl]acetamide] showed a melting point of 221 to 222 °C.
C[C@@H]1CN(CC(=O)Nc2cccc3cnccc23)C[C@H](C)N1c1ncnc2sccc12 [Example 9, cis-2-(3,5-Dimethyl-4-(thieno[2,3-d]pyrimidin-4-yl)piperazin-1-yl)-N-(isoquinolin-5-yl)acetamide] gave a melting point of 213 to 216 °C.
Compound C[C@@H]1CN(CC(=O)Nc2cccc3ncccc23)C[C@H](C)N1c1ncnc2sccc12 [Example 10] has a melting point of 194 to 195 °C.
Compound C[C@@H]1CN(CC(=O)Nc2ccccc2C(F)(F)F)C[C@H](C)N1c1ncnc2sccc12 [Example 12, cis-2-(3,5-Dimethyl-4-(thieno[2,3-d]pyrimidin-4-yl)piperazin-1-yl]-N-(2-trifluoromethylphenyl)acetamide] has a melting point of 154 to 155 °C.
Cc1cccnc1NC(=O)CN1C[C@@H](C)N(c2ncnc3sccc23)[C@@H](C)C1 [Example 13, cis-2-(3,5-Dimethyl-4-(thieno[2,3-d]pyrimidin-4-yl)piperazin-1-yl)-N-(3-methylpyridin-2-yl)acetamide] showed a melting point of 157 to 159 °C.
With C[C@@H]1CN(CC(=O)Nc2nccc3ccccc23)C[C@H](C)N1c1ncnc2sccc12 [Example 14, cis-2-(3,5-Dimethyl-4-(thieno[2,3-d]pyrimidin-4-yl)piperazin-1-yl)-N-(isoquinolin-1-yl)acetamide] the melting point was 206 to 207 °C.
In the case of C[C@@H]1CN(CC(=O)Nc2nc3ccccc3n2C)C[C@H](C)N1c1ncnc2sccc12 [Example 49, cis-2-(3,5-Dimethyl-4-(thieno[2,3-d]pyrimidin-4-yl)piperazin-1-yl)-N-(1-methyl-1H-benzoimidazol-2-yl)acetamide], the melting point is reported as 200 °C.
With Cc1ccccc1NC(=O)CN1C[C@@H](C)N(S(=O)(=O)c2cccc(C#N)c2)[C@@H](C)C1 [Example 55, cis-2-[4-(3-Cyanobenzenesulphonyl)-3,5-dimethylpiperazin-1-yl]-N-(2-methylphenyl)acetamide] the melting point was 152 to 153 °C.
Compound Cc1ccccc1NC(=O)CN1C[C@@H](C)N(S(=O)(=O)c2cccc([N+](=O)[O-])c2)[C@@H](C)C1 [Example 56, cis-N-(2-Methylphenyl)-2-[4-(3-nitrobenzenesulphonyl)-3,5-dimethylpiperazin-1-yl]-acetamide] has a melting point of 163 to 164 °C.
Cc1ccccc1NC(=O)CN1C[C@@H](C)N(S(=O)(=O)c2cccc(N)c2)[C@@H](C)C1 [Example 57, cis-2-[4-(3-Aminobenzenesulphonyl)-3,5-dimethylpiperazin-1-yl]-N-(2-methylphenyl)acetamide] gave a melting point of 202 to 203 °C.
In the case of CC(=O)Nc1cccc(S(=O)(=O)N2[C@H](C)CN(CC(=O)Nc3ccccc3C)C[C@@H]2C)c1 [Example 62, cis-2-[4-(3-Acetylaminobenzenesulphonyl)-3,5-dimethylpiperazin-1-yl]-N-(2-methylphenyl)acetamide], the melting point is reported as 236 to 238 °C.
In the case of Cc1ccccc1NC(=O)CN1C[C@@H](C)N(S(=O)(=O)c2cccc(C(N)=O)c2)[C@@H](C)C1 [Example 63, cis-2-[4-(3-Aminocarbonylbenzenesulphonyl)-3,5-dimethylpiperazin-1-yl]-N-(2-methylphenyl)acetamide], the melting point is reported as 124 to 125 °C.
With Cc1ccccc1NC(=O)CN1C[C@@H](C)N(S(=O)(=O)c2cccc(NS(C)(=O)=O)c2)[C@@H](C)C1 [Example 64, cis-2-[4-(3-Methanesulphonylaminobenzenesulphonyl)-3,5-dimethylpiperazin-1-yl]-N-(2-methylphenyl)acetamide] the melting point was 102 to 103 °C.
With Cc1ccccc1NC(=O)CN1C[C@@H](C)N(S(=O)(=O)c2cccc(C(=O)NCCN)c2)[C@@H](C)C1 [Example 71, cis-2-[4-(2-Aminoethylaminocarbonylbenzenesulphonyl)-3,5-dimethylpiperazin-1-yl]-N-(2-methylphenyl)acetamide] the melting point was 90 to 92 °C.
